Data set [1] has as its system IKr of cardiac myocytes. Particulars: cited from earlier work.
Data set [2] addresses T1, HERG (Homo sapiens, UniProt Q12809). The experiment in a line: HERG current in Xenopus oocytes injected with HERG cRNA, two-microelectrode voltage clamp. Particulars: for effect on current magnitude or voltage-dependence of channel activation: 1 mM within 30 min of application.
Procedure: (§1) The characteristics of the expressed channel were studied in oocytes 2-6 days after cRNA injection using standard two-microelectrode voltage clamp techniques. HERG current was activated in response to test potentials >−50 mV. […] Deactivation of current (tail current) was assessed after return of the membrane to the holding potential of −70 mV. […] The voltage-dependence of channel activation was assessed by plotting the relative amplitude of tail currents as a function of test potential (FIG. 1D).
(§2) Xenopus frogs were anesthetized by immersion in 0.2% tricaine for 15-30 min. Ovarian lobes were digested with 2 mg/ml Type 1A collagenase (Sigma) in Ca^2+-free ND96 solution for 1.5 hours to remove follicle cells. […] Barth's solution contained (in mM): 88 NaCl, 1 KCl, 0.4 CaCl2, 0.33 Ca(NO3)2, 1 MgSO4, 2.4 NaHCO3, 10 HEPES; pH 7.4.
(§3) Unless indicated, oocytes were bathed in ND96 solution. This solution contained (in mM): 96 NaCl, 2 KCl, 1 MgCl2, 1.8 CaCl2, 5 HEPES; pH 7.6. In some experiments, KCl was varied by equimolar substitution with NaCl. Currents were recorded at room temperature (21-23° C.) using standard two-microelectrode voltage clamp techniques. Glass microelectrodes were filled with 3 M KCl and their tips broken to obtain tip resistances of 1-3 MΩ for the voltage-recording electrode and 0.6-1 MΩ for the current-passing electrode. Oocytes were voltage-clamped with a Dagan TEV-200 amplifier. Voltage commands were generated using pClamp software (ver. 6, Axon Instruments), a 486DX2 personal computer and a TL-1 D/A interface (Axon Instruments). Current signals were digitally sampled at a rate equal to 2-4 times the low-pass cut-off frequency (−3 db) of a 4-pole Bessel filter. Unless indicated, currents were corrected for leak and capacitance using standard, on-line P/3 leak subtraction. The oocyte membrane potential was held at −70 mV between test pulses, applied at a rate of 1-3 pulses/min. Data analyses, including exponential fitting of current traces, were performed using pCLAMP. […] Data are expressed as the mean±SEM (n=number of oocytes).
The target in data set [3] is T2, IKr (guinea pig heart) (Cavia porcellus, UniProt O08703).
T2 construct: host or cells: guinea pig cardiac myocytes (endogenous current)
T2 sequence (O08703 1-1294): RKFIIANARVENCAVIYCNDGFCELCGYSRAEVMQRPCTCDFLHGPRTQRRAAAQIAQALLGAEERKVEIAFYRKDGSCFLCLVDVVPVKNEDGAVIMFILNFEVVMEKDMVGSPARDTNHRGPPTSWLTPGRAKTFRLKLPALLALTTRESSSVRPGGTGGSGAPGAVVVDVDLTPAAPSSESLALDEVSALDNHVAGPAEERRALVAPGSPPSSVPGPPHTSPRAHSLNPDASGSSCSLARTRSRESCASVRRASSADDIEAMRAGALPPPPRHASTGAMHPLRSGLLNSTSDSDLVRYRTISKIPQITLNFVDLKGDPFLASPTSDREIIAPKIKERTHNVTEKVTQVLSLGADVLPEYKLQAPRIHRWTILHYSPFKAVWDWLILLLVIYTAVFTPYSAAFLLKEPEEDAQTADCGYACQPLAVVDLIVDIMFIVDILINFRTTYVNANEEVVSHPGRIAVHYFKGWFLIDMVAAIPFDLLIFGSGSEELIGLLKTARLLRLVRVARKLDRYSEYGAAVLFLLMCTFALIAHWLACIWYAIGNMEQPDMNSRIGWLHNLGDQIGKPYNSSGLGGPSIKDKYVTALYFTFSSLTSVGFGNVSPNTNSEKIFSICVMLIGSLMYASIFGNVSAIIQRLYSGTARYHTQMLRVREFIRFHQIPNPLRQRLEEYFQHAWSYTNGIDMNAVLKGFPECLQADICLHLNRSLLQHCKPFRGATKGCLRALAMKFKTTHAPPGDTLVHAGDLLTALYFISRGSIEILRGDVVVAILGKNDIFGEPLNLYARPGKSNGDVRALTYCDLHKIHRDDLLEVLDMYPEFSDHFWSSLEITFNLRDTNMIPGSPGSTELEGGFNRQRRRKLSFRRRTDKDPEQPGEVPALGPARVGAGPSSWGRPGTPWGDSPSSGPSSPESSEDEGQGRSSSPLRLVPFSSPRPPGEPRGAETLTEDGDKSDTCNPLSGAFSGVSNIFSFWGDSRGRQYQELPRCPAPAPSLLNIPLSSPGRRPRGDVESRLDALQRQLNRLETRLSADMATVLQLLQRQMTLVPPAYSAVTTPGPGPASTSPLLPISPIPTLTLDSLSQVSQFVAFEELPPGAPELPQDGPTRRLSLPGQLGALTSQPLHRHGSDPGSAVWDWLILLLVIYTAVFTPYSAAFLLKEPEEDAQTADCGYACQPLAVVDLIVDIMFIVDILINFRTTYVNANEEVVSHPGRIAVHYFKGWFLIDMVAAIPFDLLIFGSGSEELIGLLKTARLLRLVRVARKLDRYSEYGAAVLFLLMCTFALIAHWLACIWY
Conditions: read-out: IC50 (blockers, methanesulfonanilides); cited from earlier work.

Data set [4] has as its target T3, rcKATP-1 (Rattus norvegicus, UniProt P48548).
T3 sequence (P48548 1-419): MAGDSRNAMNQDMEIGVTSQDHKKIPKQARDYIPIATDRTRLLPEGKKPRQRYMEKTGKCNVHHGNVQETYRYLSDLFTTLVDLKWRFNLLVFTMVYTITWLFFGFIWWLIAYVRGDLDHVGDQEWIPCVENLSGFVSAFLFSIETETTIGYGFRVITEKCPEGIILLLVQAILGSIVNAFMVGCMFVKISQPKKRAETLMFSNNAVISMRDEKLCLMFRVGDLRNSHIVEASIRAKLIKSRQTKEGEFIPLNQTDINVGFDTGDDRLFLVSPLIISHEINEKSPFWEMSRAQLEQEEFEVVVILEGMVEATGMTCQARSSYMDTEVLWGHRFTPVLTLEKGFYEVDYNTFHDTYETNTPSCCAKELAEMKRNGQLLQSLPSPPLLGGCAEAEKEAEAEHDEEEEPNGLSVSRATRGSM
Conditions: expressed in HEK293 cells; cited from earlier work.

In data set [5] the target is T1, HERG.
Procedure: as §1, §2, §3
Data set [6] concerns the target T4, IKr (mouse AT-1 cells) (Mus musculus, UniProt O35219).
T4 sequence (O35219 1-1162): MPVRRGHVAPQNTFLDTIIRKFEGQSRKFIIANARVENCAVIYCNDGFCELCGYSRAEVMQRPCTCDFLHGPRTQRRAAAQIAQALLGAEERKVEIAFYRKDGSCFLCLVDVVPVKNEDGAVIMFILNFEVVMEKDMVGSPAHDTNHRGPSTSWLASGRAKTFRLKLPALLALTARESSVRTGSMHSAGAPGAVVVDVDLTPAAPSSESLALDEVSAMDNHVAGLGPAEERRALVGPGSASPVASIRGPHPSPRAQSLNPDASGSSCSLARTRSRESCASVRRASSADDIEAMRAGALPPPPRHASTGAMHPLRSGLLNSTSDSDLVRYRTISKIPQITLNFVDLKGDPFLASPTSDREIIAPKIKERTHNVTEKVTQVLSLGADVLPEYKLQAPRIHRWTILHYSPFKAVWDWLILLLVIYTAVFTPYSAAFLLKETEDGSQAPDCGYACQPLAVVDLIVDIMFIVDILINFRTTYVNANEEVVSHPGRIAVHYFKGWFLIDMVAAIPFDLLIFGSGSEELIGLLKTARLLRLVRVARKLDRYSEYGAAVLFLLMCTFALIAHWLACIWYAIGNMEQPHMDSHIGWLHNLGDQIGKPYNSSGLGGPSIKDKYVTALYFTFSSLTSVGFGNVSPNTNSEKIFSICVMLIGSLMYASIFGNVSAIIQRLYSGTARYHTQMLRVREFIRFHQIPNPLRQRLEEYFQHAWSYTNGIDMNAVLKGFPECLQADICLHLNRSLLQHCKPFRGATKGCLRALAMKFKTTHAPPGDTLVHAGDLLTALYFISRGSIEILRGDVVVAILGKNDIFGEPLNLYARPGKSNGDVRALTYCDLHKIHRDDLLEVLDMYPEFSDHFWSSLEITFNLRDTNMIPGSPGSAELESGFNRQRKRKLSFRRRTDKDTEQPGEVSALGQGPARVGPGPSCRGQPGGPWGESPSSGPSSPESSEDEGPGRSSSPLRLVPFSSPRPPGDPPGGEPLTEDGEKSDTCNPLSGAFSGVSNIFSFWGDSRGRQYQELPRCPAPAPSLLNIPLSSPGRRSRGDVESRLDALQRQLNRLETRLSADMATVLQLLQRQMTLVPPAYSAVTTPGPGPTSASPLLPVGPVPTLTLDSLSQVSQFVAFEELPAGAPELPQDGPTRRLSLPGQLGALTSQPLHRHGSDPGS
Conditions: cited from earlier work.

Where two headings read alike, the source gives them in different places.

T1 sequence (Q12809 whole entry): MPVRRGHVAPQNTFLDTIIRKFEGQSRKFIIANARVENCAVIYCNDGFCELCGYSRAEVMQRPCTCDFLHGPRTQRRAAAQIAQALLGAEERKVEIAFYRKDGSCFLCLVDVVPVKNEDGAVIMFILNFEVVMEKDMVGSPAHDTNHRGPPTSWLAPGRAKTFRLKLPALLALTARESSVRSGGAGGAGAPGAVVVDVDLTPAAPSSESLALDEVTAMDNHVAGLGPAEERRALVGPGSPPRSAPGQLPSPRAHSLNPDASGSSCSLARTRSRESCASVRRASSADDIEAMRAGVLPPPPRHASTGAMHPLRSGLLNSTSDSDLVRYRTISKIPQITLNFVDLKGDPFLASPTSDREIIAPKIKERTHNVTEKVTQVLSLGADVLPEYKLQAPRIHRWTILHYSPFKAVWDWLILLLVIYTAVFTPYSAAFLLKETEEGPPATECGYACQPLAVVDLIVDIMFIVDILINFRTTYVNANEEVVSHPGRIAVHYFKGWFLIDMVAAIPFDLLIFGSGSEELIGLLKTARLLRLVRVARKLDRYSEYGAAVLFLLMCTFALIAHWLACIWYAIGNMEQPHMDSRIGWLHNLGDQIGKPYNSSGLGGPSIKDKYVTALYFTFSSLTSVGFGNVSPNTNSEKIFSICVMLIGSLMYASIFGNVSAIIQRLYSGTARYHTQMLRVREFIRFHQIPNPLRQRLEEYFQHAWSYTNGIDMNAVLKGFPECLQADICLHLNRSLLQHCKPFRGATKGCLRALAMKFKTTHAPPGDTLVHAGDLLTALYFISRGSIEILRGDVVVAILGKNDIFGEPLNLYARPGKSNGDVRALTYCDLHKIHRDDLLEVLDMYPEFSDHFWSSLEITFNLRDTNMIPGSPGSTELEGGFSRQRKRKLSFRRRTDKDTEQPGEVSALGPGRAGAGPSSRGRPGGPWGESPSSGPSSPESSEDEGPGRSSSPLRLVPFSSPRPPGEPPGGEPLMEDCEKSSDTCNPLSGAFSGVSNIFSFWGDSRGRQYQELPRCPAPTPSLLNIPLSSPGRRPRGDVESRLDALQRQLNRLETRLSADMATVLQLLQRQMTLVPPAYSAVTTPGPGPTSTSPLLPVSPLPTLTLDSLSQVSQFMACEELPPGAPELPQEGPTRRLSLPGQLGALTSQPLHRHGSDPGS

Turning to `[Co+2]` [Co^2+, cobalt], the “block of IKr” value in data set [1] (2 mM cobalt) is “blocked”. Moreover, in data set [2] (2 mM Co^2+, n=2), the “block of HERG current” value came out at 52%.
For the compound `CC(C)NCC(O)c1ccc(O)c(O)c1` (stereo not shown) [isoproterenol], in data set [1] (cardiac myocytes), the “increase of IKr” value was “does not increase”.
Take `Nc1ncnc2c1nc(Br)n2[C@@H]1O[C@@H]2COP(=O)(O)O[C@H]2[C@H]1O` [8-Br-cAMP]: in data set [2], the “activation of HERG” value is listed as “not activated” and the “effect on current magnitude or voltage-dependence of channel activation” value was “Neither compound had a significant effect”.
In the case of `CS(=O)(=O)Nc1ccc2c(c1)[C@H](O)CC1(CCN([C@@H]3CCc4cc(C#N)ccc4C3)CC1)O2` [MK-499], the IC50 in data set [3] was 44 nM.
`Nc1nc2c(nc(Br)n2[C@@H]2O[C@@H]3COP(=O)(O)O[C@H]3[C@H]2O)c(=O)[nH]1` [8-Br-cGMP]: the “effect on current magnitude or voltage-dependence of channel activation” value in data set [2] is on record as “Neither compound had a significant effect”.
As for `COc1ccc(Cl)cc1C(=O)NCCc1ccc(S(=O)(=O)NC(=O)NC2CCCCC2)cc1` [glibenclamide], the “block of the channel” value in data set [4] is “not blocked”.
Regarding `[La+3]` [La^3+, lanthanum], in data set [5], the “Blockers La^3+, Co^2+” value is reported as “+” and the “half-point of activation (isochronal activation curve)” value is “+23 mV”. Besides, in data set [1] (10-100 μM lanthanum), the “block of IKr” value is on record as “blocked”. The “Blockers La^3+, Co^2+” value in data set [6] is given as “+”.
On to `[K+]` [K^+], for which the “increase of HERG current” value in data set [2] ([K^+]e 5 mM versus 2 mM) came out at 40%.

Values taken from US7297489B2, “Mutations in and genomic structure of HERG—a long QT syndrome gene” (University of Utah Research Foundation, priority 1998, dated 2007).
